Measurements taken from article PMC4526861, “Inhibition of protein kinase C by isojacareubin suppresses hepatocellular carcinoma metastasis and induces apoptosis in vitro and in vivo” (Scientific Reports, 2015).

Key:
[1] = system: HepG2 cells; experiment: Matrigel invasion assay; type: cell-based, human; details: 10 μM, 24 h
Experimental: (§1) Cell migration and invasion potencies were studied using wound healing and Matrigel invasion assays. The wound healing assay was performed by scratching the cell surface with a 10 μL pipette tip. Then, the cells were treated with compound 7 and ISJ (10 μM) and incubated for 24 h before being photographed under a microscope (DMI3000 B, Leica). Wound closure was evaluated using ImageJ software. Invasion through a Matrigel-coated filter was measured in transwell chambers (Corning Costa) as described previously, with minor modifications. Briefly, HepG2 Cells (2 × 10^5/well) were suspended in serum-free medium and added to the upper chamber of the Matrigel plate. FBS (10%) was used as the chemoattractant in the lower chamber. After incubation for 24 h, the non-invading cells were removed from the upper surface of the insert membrane with a cotton swab. The invading cells were fixed with methanol and stained with Giemsa (Sigma). Cells in five randomly selected fields were photographed, and the numbers of cells that crossed the membrane were counted.

[2] = system: MMP-9, FGFR-1, E-cadherin; experiment: Western blot of invasion-related proteins, HepG2; type: cell-based, human; details: HepG2, 24 h
Experimental: Additional PKC targeting effects involved in the early response of major MAPK phosphorylation and the late response of HCC cell invasion and apoptosis were investigated. After 24 h of treatment with ISJ at the indicated concentrations, the total protein lysates from HCC cells were analyzed (Fig. 6). ISJ inhibited the phosphorylated, activated forms of c-Raf, MEK1/2 and ERK1/2 in the MAPK signaling pathway in both HepG2 and QGY-7703 cells (Fig. 6a). […] In contrast, E-cadherin expression was elevated, specifically at the highest concentration of ISJ (20 μM) (Fig. 6b). In addition, we analyzed several representative apoptotic proteins, including cleaved PARP (c-PARP), p53 and p21. […] These findings support our hypothesis that ISJ restrains HCC cell metastasis and induces HCC cell apoptosis by specifically inhibiting PKC.
The total membrane and cytosolic proteins were extracted using a Membrane and Cytosol Protein Extraction Kit (Beyotime). Extracted proteins from cells or animal tissues were separated by SDS-PAGE and transferred to polyvinylidene difluoride (PVDF) membranes (Bio-Rad). The PVDF membranes were blocked with 5% nonfat milk and incubated with primary antibodies overnight, followed by incubation with a donkey anti-rabbit or anti-mouse secondary antibody (IRDye 800, LI-COR, Biosciences). […] The intensity was quantitative with Quantity One software (Bio-Rad). […]

[3] = system: c-PARP, c-Cas3 and c-Cas9 in xenograft tumors; experiment: Histology, IHC and immunoblot of xenograft tumors; type: in vivo, BALB/c-nu nude mice; details: 5 mg/kg
Experimental: The total membrane and cytosolic proteins were extracted using a Membrane and Cytosol Protein Extraction Kit (Beyotime). Extracted proteins from cells or animal tissues were separated by SDS-PAGE and transferred to polyvinylidene difluoride (PVDF) membranes (Bio-Rad). The PVDF membranes were blocked with 5% nonfat milk and incubated with primary antibodies overnight, followed by incubation with a donkey anti-rabbit or anti-mouse secondary antibody (IRDye 800, LI-COR, Biosciences). The images were captured using the Odyssey Infrared Imaging System (LI-COR, Biosciences), according to the manufacturer's instructions. The intensity was quantitative with Quantity One software (Bio-Rad). To ensure equal protein loading, each membrane was stripped and reprobed with an anti-β-actin antibody. All experiments were repeated independently no less than three times.
To further confirm the antitumor activities of compound 7 and ISJ in vivo, histological analysis was performed on the hepatoma xenografts. Briefly, the samples were fixed in a 10% formalin solution, processed, embedded, sectioned and either H&E stained to reveal tumor tissue necrosis or IHC stained using antibodies against c-PARP, c-Cas3 or c-Cas9. The H&E and IHC images were obtained on a Leica DMI3000 B phase-contrast microscopy. The immunoreactive areas in the IHC images were quantified using ImagePro Plus 6.0 software (Media Cybernetics, Silver Spring, MD). The integrated optical density (IOD) values were represented as the mean ± SEM.

[4] = system: SMMC-7721 cells; experiment: Cell proliferation assay (CCK-8), SMMC-7721; type: cell-based, human; details: mean ± SD, at least three independent experiments
Experimental: The human HCC cell lines QGY-7703, SMMC-7721 and HepG2 and the liver cell line QSG-7701 were supplied by the Cell Resource Center, Institute of Life Sciences, Chinese Academy of Medical Science. QGY-7703, SMMC-7721 and QSG-7701 cells were cultured in 1640 medium (Gibco), and HepG2 cells were cultured in DMEM medium (Gibco) at 37 °C in moist air supplemented with 5% CO2. All media were supplemented with 10% fetal bovine serum (FBS) and 100 Units/mL of penicillin/streptomycin.
The cell viability assay was performed as previously reported using a Cell Counting Kit-8 (CCK-8; Dojindo, Kumamoto, Japan)[33][34]. The relative cell viability was presented as % inhibition and calculated using the following formula: […]

[5] = system: HepG2 cells; experiment: Wound healing (migration) assay; type: cell-based, human; details: 10 μM, 24 h
Experimental: as §1

Isojacareubin [ISJ]
inhibition of invasiveness compared to control [1]: 76% | expression levels of MMP-9 and FGFR-1 [2]: markedly reduced | E-cadherin expression ([2]; specifically at 20 μM): elevated | H&E staining of xenograft tumors [3]: significant tissue death | IHC c-PARP, c-Cas3 and c-Cas9 levels in tumors [3]: upregulated expression | immunoblot c-PARP, c-Cas3 and c-Cas9 levels in tumor tissue [3]: increased | IC50 [4]: 1630 ± 50 nM | decrease of HepG2 cell migration compared to control [5]: 77.8%
